According to ChEMBL document CHEMBL2331502, “Discovery of a novel series of quinolone α7 nicotinic acetylcholine receptor agonists” (Bioorg Med Chem Lett, 2013):

Key:
[1] = target: T1, Neuronal acetylcholine receptor subunit alpha-7 (Rattus norvegicus, UniProt Q05941); assay: Agonist activity at rat alpha7 nAChR expressed in HEK293 cells assessed as calcium ion influx by FRET assay; type: cell-based
[2] = Ratio of drug level in brain to plasma in ip dosed rat after 30 mins; type: ADME, organism-based; details: read-out: BPR
[3] = Efflux ratio of the compound in human Caco2 cells; type: ADME, cell-based; details: Caco-2
[4] = Permeability of the compound at pH 7.4 by PAMPA; type: ADME; details: read-out: permeability
[5] = Dissociation constant, pKa of the compound; type: physicochemical
[6] = target: T1, Neuronal acetylcholine receptor subunit alpha-7; assay: Agonist activity at rat alpha7 nAChR expressed in HEK293 cells assessed as area under the curve of acetylcholine-induced response by whole-cell patch clamp electrophysiology paradigm assay; type: cell-based
[7] = target: Neuronal acetylcholine receptor subunit alpha-7 (Rattus norvegicus) (UniProt Q05941); assay: Agonist activity at rat alpha7 nAChR expressed in HEK293 cells assessed as area under the curve of acetylcholine-induced response by whole-cell patch clamp electrophysiology paradigm assay relative to control; type: cell-based
Sequence of Neuronal acetylcholine receptor subunit alpha-7 (Rattus norvegicus) (Q05941 whole entry): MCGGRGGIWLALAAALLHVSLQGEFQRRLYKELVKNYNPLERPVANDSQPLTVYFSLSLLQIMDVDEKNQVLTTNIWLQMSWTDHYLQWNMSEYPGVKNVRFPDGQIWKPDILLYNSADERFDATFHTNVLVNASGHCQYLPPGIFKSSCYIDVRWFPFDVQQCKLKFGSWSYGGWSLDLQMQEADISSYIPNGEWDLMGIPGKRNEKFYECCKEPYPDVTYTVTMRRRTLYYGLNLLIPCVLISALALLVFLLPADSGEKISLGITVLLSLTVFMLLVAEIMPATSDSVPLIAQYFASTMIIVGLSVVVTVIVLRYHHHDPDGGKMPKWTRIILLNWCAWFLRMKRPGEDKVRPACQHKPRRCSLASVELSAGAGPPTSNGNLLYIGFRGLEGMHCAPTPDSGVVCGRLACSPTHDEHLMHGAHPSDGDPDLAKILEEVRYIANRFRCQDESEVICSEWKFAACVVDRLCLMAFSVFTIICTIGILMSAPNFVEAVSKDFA

[8] = target: Neuronal acetylcholine receptor subunit alpha-7 (Rattus norvegicus) (UniProt Q05941); assay: Agonist activity at rat alpha7 nAChR expressed in HEK293 cells assessed as peak intensity of acetylcholine-induced response by whole-cell patch clamp electrophysiology paradigm assay relative to control; type: cell-based
[9] = target: Neuronal acetylcholine receptor; alpha4/beta2 (Homo sapiens, UniProt P17787+P43681); assay: Agonist activity at alpha4beta2 nAChR (unknown origin); type: protein-complex assay
Sequence of Neuronal acetylcholine receptor; alpha4/beta2 (P17787 whole entry): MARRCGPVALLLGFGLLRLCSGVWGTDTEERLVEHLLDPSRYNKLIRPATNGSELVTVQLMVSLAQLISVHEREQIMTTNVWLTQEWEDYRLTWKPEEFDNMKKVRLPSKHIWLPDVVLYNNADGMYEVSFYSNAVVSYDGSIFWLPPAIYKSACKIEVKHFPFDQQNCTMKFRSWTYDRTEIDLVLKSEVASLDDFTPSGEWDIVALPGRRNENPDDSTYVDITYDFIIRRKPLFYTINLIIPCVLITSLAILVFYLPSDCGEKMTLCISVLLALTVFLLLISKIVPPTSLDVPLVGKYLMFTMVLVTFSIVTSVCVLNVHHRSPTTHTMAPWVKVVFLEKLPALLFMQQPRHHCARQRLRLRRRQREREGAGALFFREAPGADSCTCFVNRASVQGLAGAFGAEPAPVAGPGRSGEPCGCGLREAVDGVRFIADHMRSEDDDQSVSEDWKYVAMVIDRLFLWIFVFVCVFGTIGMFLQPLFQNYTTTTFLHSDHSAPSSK
Sequence of Neuronal acetylcholine receptor; alpha4/beta2 (P43681 whole entry): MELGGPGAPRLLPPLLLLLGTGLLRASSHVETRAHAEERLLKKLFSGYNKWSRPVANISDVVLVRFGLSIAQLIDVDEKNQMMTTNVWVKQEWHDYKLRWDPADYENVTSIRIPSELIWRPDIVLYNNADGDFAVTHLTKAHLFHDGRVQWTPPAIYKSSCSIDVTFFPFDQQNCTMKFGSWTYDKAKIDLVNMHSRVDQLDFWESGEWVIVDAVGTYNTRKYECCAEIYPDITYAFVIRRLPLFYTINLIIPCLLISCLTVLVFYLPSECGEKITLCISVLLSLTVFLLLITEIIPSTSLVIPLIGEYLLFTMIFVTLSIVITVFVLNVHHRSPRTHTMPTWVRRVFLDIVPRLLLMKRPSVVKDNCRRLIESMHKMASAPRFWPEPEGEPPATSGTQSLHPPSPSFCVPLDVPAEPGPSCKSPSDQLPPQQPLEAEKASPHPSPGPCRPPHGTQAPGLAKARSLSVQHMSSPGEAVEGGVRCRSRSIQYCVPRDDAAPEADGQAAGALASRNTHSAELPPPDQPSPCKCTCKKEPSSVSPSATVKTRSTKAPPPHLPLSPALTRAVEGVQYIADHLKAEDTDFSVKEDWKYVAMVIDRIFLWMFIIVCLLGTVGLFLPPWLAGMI

[10] = target: Neuronal acetylcholine receptor; alpha3/beta4 (Homo sapiens, UniProt P30926+P32297); assay: Agonist activity at alpha3beta4 nAChR (unknown origin); type: protein-complex assay
Sequence of Neuronal acetylcholine receptor; alpha3/beta4 (P30926 whole entry): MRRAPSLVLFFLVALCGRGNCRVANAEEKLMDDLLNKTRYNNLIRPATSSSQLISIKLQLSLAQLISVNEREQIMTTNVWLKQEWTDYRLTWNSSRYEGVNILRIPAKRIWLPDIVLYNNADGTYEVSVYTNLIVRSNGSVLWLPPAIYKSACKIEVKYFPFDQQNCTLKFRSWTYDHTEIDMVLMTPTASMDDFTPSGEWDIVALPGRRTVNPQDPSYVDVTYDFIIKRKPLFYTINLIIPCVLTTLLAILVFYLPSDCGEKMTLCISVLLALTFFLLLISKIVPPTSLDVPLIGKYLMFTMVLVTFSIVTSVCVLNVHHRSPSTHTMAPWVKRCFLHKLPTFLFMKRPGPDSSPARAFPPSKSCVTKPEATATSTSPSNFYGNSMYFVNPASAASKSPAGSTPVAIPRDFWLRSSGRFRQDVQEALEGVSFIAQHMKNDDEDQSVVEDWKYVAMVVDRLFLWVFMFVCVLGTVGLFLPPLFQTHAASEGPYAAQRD
Sequence of Neuronal acetylcholine receptor; alpha3/beta4 (P32297 whole entry): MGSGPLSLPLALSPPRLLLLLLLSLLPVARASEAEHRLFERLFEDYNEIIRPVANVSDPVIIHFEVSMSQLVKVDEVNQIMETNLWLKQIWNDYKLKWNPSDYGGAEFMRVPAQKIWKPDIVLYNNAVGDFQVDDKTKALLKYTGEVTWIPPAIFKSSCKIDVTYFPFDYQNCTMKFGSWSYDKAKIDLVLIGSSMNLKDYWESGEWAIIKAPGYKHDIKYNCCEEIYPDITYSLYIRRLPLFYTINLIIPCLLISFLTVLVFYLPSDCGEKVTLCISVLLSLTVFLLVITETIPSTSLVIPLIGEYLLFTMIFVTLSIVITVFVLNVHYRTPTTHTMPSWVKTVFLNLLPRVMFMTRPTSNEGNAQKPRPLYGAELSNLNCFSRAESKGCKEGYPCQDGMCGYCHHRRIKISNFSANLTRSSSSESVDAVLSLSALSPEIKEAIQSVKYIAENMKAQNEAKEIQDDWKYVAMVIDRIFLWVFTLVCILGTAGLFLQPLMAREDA

[11] = target: T2, 5-hydroxytryptamine receptor 3A (Homo sapiens, UniProt P46098); assay: Inhibition of 5HT3 receptor (unknown origin)
T2 sequence (P46098 whole entry): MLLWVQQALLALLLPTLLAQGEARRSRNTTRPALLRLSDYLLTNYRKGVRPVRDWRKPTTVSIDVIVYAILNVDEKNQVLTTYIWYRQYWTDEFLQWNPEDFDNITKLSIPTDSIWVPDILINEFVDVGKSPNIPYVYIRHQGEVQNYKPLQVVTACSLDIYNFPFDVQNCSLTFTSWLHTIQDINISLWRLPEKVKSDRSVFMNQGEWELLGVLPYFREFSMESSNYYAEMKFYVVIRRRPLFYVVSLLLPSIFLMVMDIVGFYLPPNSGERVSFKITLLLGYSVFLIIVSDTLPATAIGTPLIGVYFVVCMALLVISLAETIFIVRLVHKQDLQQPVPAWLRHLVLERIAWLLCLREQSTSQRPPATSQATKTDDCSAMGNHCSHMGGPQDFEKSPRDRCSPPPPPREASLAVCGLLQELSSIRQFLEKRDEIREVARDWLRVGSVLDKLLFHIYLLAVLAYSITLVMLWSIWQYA

[12] = target: Acetylcholine receptor; alpha1/beta1/delta/gamma (Homo sapiens, UniProt P02708+P07510+P11230+Q07001); assay: Agonist activity at alpha1beta1deltaepsilon nAChR (unknown origin); type: protein-complex assay
Sequence of Acetylcholine receptor; alpha1/beta1/delta/gamma (P02708 whole entry): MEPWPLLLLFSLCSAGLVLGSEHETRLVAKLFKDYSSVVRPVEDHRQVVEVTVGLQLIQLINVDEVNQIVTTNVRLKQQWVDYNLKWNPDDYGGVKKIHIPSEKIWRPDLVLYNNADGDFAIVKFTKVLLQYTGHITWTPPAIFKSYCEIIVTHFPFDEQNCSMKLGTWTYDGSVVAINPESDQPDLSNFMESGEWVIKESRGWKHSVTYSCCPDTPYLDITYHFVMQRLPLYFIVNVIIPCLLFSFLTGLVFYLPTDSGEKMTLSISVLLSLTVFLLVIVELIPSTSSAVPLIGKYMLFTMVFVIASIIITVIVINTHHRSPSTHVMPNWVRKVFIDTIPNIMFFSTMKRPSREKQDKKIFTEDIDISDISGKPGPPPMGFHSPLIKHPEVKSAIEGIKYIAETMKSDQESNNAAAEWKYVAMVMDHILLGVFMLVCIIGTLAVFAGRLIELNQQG
Sequence of Acetylcholine receptor; alpha1/beta1/delta/gamma (P07510 whole entry): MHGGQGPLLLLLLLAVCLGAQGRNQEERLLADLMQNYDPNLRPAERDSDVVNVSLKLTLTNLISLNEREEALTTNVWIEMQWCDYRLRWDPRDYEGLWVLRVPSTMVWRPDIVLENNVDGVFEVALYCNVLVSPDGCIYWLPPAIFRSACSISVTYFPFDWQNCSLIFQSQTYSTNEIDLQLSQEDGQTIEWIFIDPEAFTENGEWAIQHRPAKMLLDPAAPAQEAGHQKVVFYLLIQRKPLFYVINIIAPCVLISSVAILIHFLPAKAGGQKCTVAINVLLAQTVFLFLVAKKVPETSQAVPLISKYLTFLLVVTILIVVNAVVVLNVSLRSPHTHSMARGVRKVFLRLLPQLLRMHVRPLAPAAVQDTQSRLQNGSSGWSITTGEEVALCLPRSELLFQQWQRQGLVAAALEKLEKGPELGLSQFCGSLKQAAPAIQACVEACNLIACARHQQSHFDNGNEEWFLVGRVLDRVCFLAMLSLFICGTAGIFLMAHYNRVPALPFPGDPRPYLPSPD
Sequence of Acetylcholine receptor; alpha1/beta1/delta/gamma (P11230 whole entry): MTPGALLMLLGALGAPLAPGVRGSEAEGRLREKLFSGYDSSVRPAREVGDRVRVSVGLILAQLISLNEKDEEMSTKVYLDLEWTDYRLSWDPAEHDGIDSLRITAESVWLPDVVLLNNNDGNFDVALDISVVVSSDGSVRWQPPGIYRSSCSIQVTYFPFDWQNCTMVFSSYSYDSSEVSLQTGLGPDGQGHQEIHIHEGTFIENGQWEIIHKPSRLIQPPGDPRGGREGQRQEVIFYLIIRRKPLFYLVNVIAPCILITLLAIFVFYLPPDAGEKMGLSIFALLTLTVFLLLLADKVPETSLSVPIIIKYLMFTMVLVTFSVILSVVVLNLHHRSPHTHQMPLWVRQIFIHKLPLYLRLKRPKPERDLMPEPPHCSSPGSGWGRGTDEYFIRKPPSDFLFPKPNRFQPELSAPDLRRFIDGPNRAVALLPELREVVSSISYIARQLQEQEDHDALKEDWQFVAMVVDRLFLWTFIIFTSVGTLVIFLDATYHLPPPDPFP
Sequence of Acetylcholine receptor; alpha1/beta1/delta/gamma (Q07001 whole entry): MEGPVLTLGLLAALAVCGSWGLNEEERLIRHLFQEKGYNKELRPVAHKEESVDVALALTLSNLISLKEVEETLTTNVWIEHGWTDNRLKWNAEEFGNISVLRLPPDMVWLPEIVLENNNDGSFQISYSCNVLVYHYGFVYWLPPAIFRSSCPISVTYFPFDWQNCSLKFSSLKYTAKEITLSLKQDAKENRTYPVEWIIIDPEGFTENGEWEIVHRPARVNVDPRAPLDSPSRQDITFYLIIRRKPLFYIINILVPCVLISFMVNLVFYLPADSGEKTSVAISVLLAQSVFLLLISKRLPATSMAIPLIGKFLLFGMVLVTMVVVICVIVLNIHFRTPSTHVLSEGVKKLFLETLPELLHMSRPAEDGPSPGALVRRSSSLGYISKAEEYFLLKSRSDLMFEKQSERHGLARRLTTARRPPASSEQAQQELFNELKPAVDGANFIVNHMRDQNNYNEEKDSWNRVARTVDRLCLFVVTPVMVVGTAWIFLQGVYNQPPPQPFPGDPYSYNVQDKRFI

[13] = Selectivity ratio of IC50 for 5HT3 receptor (unknown origin) to EC50 for rat alpha7 nAChR
[14] = Selectivity ratio of EC50 for alpha3beta4 nAChR (unknown origin) to EC50 for rat alpha7 nAChR
[15] = Selectivity ratio of EC50 for alpha4beta2 nAChR (unknown origin) to EC50 for rat alpha7 nAChR
[16] = Selectivity ratio of EC50 for alpha1beta1deltaepsilon nAChR (unknown origin) to EC50 for rat alpha7 nAChR
[17] = Ratio of drug level in brain to plasma in sc dosed rat after 30 mins; type: ADME, organism-based; details: read-out: BPR

T1 sequence (Q05941 whole entry): as the sequence (Q05941 whole entry) above

With `O=c1cc(-c2cccc3[nH]ccc23)c2ccccc2n1CC1CCCNC1` (racemic) the EC50 [1] was 110 nM.
With `CNCCCn1c(=O)c(C#N)c(-c2ccccc2)c2ccccc21` the EC50 [1] was 900 nM.
For `N#Cc1c(-c2ccccc2)c2ccccc2n(CCCN2CCCC2)c1=O`, the EC50 [1] was 9300 nM.
In the case of `O=c1cc(-c2ccccc2)c2ccccc2n1CC1CN2CCC1CC2` (centres undefined), the Kp at 0.5 h [2] is reported as 0.02, the efflux ratio [3] is reported as 6.9 and the Papp [4] is reported as 90 ×10⁻⁶ cm/s. For the same compound, the pKa [5] was 10.1, the EC50 [1] was 150 nM and the EC50 [6] was 760 nM. The Emax [7] was 110% and the Emax [8] was 60%.
For `CN(C)CCn1c(=O)cc(-c2ccccc2)c2ccccc21`, the EC50 [1] was over 10000 nM.
Work on `Cc1ccccc1-c1cc(=O)n(CC2CCCNC2)c2ccccc12` (racemic) yielded an EC50 [1] of 1500 nM.
Compound `CN(C)CCCn1c(=O)c(C#N)cc2ccccc21` has an EC50 [1] of over 10000 nM.
`N#Cc1c(-c2ccccc2)c2ccccc2n(CC2CCCNC2)c1=O` (racemic) showed an EC50 [1] of 460 nM.
`CN(C)CCCn1c(=O)c(C#N)c(-c2ccccc2)c2ccccc21` gave an EC50 [9] of over 100000 nM, an EC50 [10] of over 100000 nM and an EC50 [1] of 1300 nM. The IC50 [11] was 19000 nM, the EC50 [12] was over 100000 nM and the EC50 [6] was 8200 nM. For the same compound, the Emax [7] was 44% and the Emax [8] was 15%.
`CCN(C)CCCn1c(=O)c(C#N)c(-c2ccccc2)c2ccccc21` gave an EC50 [1] of 4300 nM.
`COc1cccc(-c2cc(=O)n(CC3CCCNC3)c3ccccc23)c1` (racemic) showed an EC50 [1] of 1300 nM.
For `CC(=O)NCc1cccc(-c2cc(=O)n(CC3CN4CCC3CC4)c3ccccc23)c1` (racemic), the Papp [4] was 0.1 ×10⁻⁶ cm/s, the EC50 [1] was 32 nM and the Ratio IC50/EC50 [13] was 50. For the same compound, the Ratio EC50 [14] was 100, the Ratio EC50 [15] was 100 and the Ratio EC50 [16] was 100. It also gave an Emax [7] of 84% and an Emax [8] of 21%.
Compound `c1cnc2c(c1)C[C@@]1(CN3CCC1CC3)O2` [AZD0328] has an efflux ratio [3] of 0.9, a Kp at 0.5 h [17] of 1.7 and a Papp [4] of 51 ×10⁻⁶ cm/s. It also gave a pKa [5] of 8.9.
`CN(C)CCCn1c(=O)cc(-c2ccccc2)c2ccccc21` gave an EC50 [1] of 2800 nM.
Compound `CC(CN(C)C)Cn1c(=O)cc(-c2ccccc2)c2ccccc21` (racemic) has an EC50 [1] of over 10000 nM.
`O=c1cc(-c2ccccc2)c2ccccc2n1CC1CCCNC1` (centres undefined) gave an EC50 [1] of 210 nM, an EC50 [6] of 2500 nM and an Emax [7] of 30%. The Emax [8] was 60%.
`CS(=O)(=O)NCc1cccc(-c2cc(=O)n(CC3CN4CCC3CC4)c3ccccc23)c1` (racemic) gave an EC50 [1] of 14 nM, a Ratio IC50/EC50 [13] of 50 and a Ratio EC50 [14] of 100. For the same compound, the Ratio EC50 [15] was 100, the Ratio EC50 [16] was 100 and the EC50 [6] was 260 nM. The Emax [7] was 97% and the Emax [8] was 21%.
Compound `Cc1ccc(-c2cc(=O)n(CC3CCCNC3)c3ccccc23)cc1` (racemic) has an EC50 [1] of over 10000 nM.
`CN1CCCC(Cn2c(=O)c(C#N)c(-c3ccccc3)c3ccccc32)C1` (racemic) gave an EC50 [1] of over 10000 nM.
`O=c1cc(-c2ccccc2)c2ccccc2n1CC1CNCCO1` (centres undefined) showed an efflux ratio [3] of 1, a Kp at 0.5 h [17] of 0.9 and a Papp [4] of 55 ×10⁻⁶ cm/s. For the same compound, the pKa [5] was 8.1, the EC50 [1] was 260 nM and the EC50 [6] was 1200 nM. It also gave an Emax [7] of 41% and an Emax [8] of 34%.
For `O=c1cc(-c2ccccc2)c2ccccc2n1CC1CN2CCC1(F)CC2` (racemic), the efflux ratio [3] was 0.6, the Papp [4] was 38 ×10⁻⁶ cm/s and the pKa [5] was 7.6.
`CN(C)CCCn1ccc(-c2ccccc2)c(C#N)c1=O` gave an EC50 [1] of over 10000 nM.
With `CN(C)CCCCn1c(=O)cc(-c2ccccc2)c2ccccc21` the EC50 [1] was over 10000 nM.
`CC(CCn1c(=O)cc(-c2ccccc2)c2ccccc21)N(C)C` (racemic) showed an EC50 [1] of over 10000 nM.
With `CC(=O)NCc1cccc(-c2cc(=O)n(CC3CCCNC3)c3ccccc23)c1` (racemic) the EC50 [1] was 100 nM.
In the case of `O=c1cc(-c2cccc3[nH]ccc23)c2ccccc2n1CC1CN2CCC1CC2` (racemic), the efflux ratio [3] is reported as over 18, the Papp [4] is reported as 40 ×10⁻⁶ cm/s and the EC50 [1] is reported as 23 nM. For the same compound, the Ratio IC50/EC50 [13] was 50, the Ratio EC50 [14] was 100 and the Ratio EC50 [15] was 100. The Ratio EC50 [16] was 100, the EC50 [6] was 540 nM and the Emax [7] was 80%. For the same compound, the Emax [8] was 62%.
Work on `CS(=O)(=O)NCc1cccc(-c2cc(=O)n(CC3CCCNC3)c3ccccc23)c1` (racemic) yielded an EC50 [1] of 77 nM.
